The values that follow come from paper PMC5844868, “Increased intracellular activity of MP1102 and NZ2114 against Staphylococcus aureus in vitro and in vivo” (Scientific Reports, 2018).

For data set [1], the system named is MRSA ATCC43300. The data set is described as follows: MIC in MHB at pH 7.3 and 5.0. The format is cell-based. The note with it: Staphylococcus aureus.
The test system of data set [2] is MSSA ATCC25923. The data set is described as follows: Mouse peritonitis model. The note with it: 5 mg/kg, 24 h. The format is in vivo. The method, then: The mice were infected by peritoneal injection with different S. aureus strains, including MSSA ATCC25923 (5 × 10^8 CFU), MRSA ATCC43300 (5 × 10^8 CFU) and high virulent CVCC546 (5 × 10^7 CFU), and treated with a single dose of drugs ([…], 20, 30 and 40 mg/kg for ATCC43300 and CVCC546) at 10 min after infection. Twenty-four hours after treatment, the mice were killed and peritoneal fluids were obtained by washing with 5 ml ice-cold PBS. The total number of bacteria in the fluids was determined before any further procedures and then divided into two equal fractions of 1.5 ml each for the following purposes: i) for extracellular bacteria quantification, one fraction was centrifuged for 10 min at 4 °C (300 g) and the supernatant CFU count was quantified and ii) for intracellular bacteria quantification, the other fraction was centrifuged for 5 min at 4 °C (1,000 rpm). The cells were collected and treated with 100 μg/ml gentamicin (MSSA ATCC25923) or 50 μg/ml lysostaphin (MRSA ATCC43300 and high virulent CVCC546) for 1 h at 37 °C to kill extracellular bacteria. The cells were washed twice with ice-cold PBS to remove any anti-extracellular bacterial drug. Subsequently, the cells were lysed and counted as described above for the in vitro experiment method[14],[54].

Data set [3] relates to IL-10. The data set is described as follows: Cytokine ELISA in S. aureus-infected RAW 264.7 cells. The format is cell-based, mouse. The note with it: 25 μg/ml, 24 h after treatment. Here is the method: To investigate the effects of MP1102 and NZ2114 on cytokine levels in cells infected with S. aureus, RAW264.7 cells (2.5 × 10^5 cells/ml) seeded into 12-well plates were incubated with MRSA ATCC43300 (MOI = 100:1) for 30 min followed by treatment with 50 μg/ml lysostaphin for 1 h to remove non-phagocytosed bacteria. The cells were then treated with 25 μg/ml MP1102, NZ2114 and vancomycin for 12 h and 24 h. Cell-free culture supernatants were collected and the concentrations of cytokines (TNF-α, IL-1β and IL-10) were determined by Jiaxuan Biotech. Co. Ltd. (Beijing, China) using an ELISA kit[58],[59].
On the technique in general: ELISA stands for enzyme-linked immunosorbent assay.

The subject of data set [4] is MRSA ATCC43300. In words: Extracellular dose-response in broth, 24 h. In kind it is cell-based, Staphylococcus aureus. Here is the method:
(§1) Dose-response curves for the extracellular activities of the peptides were performed as previously described with some modifications[2],[14],[56],[57]. For extracellular activity, MSSA ATCC25923, MRSA ATCC43300 and high virulent S. aureus CVCC546 cells were adjusted to a density of 10^5 CFU/ml.
(§2) The Hill equation was used to analyze the dose-effect relationships of the intracellular and extracellular activities of MP1102 and NZ2114 against S. aureus. The Emax, Cs and goodness of fit (R^2) were calculated by non-linear regression using GraphPad Prism version 6 (GraphPad Prism Software, San Diego, CA, USA). The other statistical procedures, means and SEMs were performed and calculated using IBM SPSS Statistics 21.0.

Data set [5] deals with MSSA ATCC25923. In words: Extracellular dose-response in broth, 24 h. In kind it is cell-based, Staphylococcus aureus. Here is the method:
as §1, §2

Data set [6] has as its system Virulent S. aureus CVCC546. The data set is described as follows: Extracellular dose-response in broth, 24 h. In kind it is cell-based, Staphylococcus aureus. Here is the method:
as §1, §2

The subject of data set [7] is Virulent S. aureus CVCC546 phagocytosed by RAW 264.7 macrophages. In words: Intracellular dose-response in RAW 264.7 macrophages, 24 h. In kind it is cell-based, Staphylococcus aureus. The method, then: (§3) For intracellular activity, RAW 264.7 macrophages (2.5 × 10^5 cells/ml) were seeded into a 6-well plate (1.5 ml/well) and cultured for 24 h in DMEM with 10% FBS (without antibiotics). Meanwhile, mid-log phase S. aureus strains (MSSA ATCC25923, MRSA ATCC43300 and high virulent CVCC546) were collected by centrifugation, diluted to a concentration of 2.5 × 10^7 CFU/ml in DMEM with 10% FBS (without antibiotic), and incubated with RAW 264.7 macrophages (1.5 ml/well) for 0.5 h. In total, 100 μg/ml gentamicin (for MSSA ATCC25923) or 50 μg/ml lysostaphin (for MRSA ATCC43300 and virulent CVCC546) was added to the cells and incubated for 1 h to remove non-phagocytosed bacteria. […] The numbers of intracellular bacteria were measured at 0 h and 24 h using the above method.
as §2

In data set [8] the test system is MRSA ATCC43300 phagocytosed by RAW 264.7 macrophages. The description is as above. The format is cell-based, Staphylococcus aureus. The method, then: as §3, §2
Data set [9] has as its system MSSA ATCC25923 phagocytosed by RAW 264.7 macrophages. The data set is described as above. The note with it: Hill equation. In kind it is cell-based, Staphylococcus aureus. The method, then: as §3, §2
The test system of data set [10] is MSSA ATCC25923. In words: MIC in MHB at pH 7.3 and 5.0. In kind it is cell-based. The note with it: Staphylococcus aureus.
Data set [11] relates to macrophages. The note with it: at 24 h; cited from earlier work. The text has this: Due to several limitations (including protein binding conditions and differences in the pharmacokinetics) in the in vitro macrophage intracellular model, an in vivo mouse peritonitis model was also examined to further evaluate the intracellular efficiency of MP1102 and NZ2114. The intracellular bacterial killing efficacy of MP1102 and NZ2114 was decreased in vivo compared to extracellular killing, though the difference was less than the in vitro model, which may be related to the complex in vivo environment weakening the antibacterial efficiency and the eradication of extracellular bacteri ...

Setting [12] is: Hill equation, 95% CI in brackets.
[13] abbreviates: change at 24 h from original inoculum, extrapolated, Hill equation.
The mark [14] stands for this setting: static concentration, graphical interpolation.
The mark [15] stands for this setting: Intracellular, Hill equation, 95% CI in brackets.
[16] abbreviates: Intracellular, change at 24 h from original inoculum, extrapolated, Hill equation.

≈ marks a conversion by molar mass, not a printed value. Where two headings read alike, the source gives them in different places. Where only a bound is given, the exact number is not on record here.

`CN[C@H](CC(C)C)C(=O)N[C@H]1C(=O)N[C@@H](CC(N)=O)C(=O)N[C@H]2C(=O)N[C@H]3C(=O)N[C@H](C(=O)N[C@H](C(=O)O)c4cc(O)cc(O)c4-c4cc3ccc4O)[C@H](O)c3ccc(c(Cl)c3)Oc3cc2cc(c3O[C@@H]2O[C@H](CO)[C@@H](O)[C@H](O)[C@H]2O[C@H]2C[C@](C)(N)[C@H](O)[C@H](C)O2)Oc2ccc(cc2Cl)[C@H]1O` [Vancomycin]: the MIC in data set [1] (pH 5, read-out: MICs) is 1 µg/mL (≈ 0.69 µM); in data set [1] (pH 7.3, read-out: MICs), 1 µg/mL (≈ 0.69 µM); in data set [10] (pH 5, read-out: MICs), < 0.004 µg/mL; in data set [10] (pH 7.3, read-out: MICs) it was 0.125 µg/mL (≈ 0.0863 µM). Further, the “effect on bacterial load” value in data set [2] is on record as “no significant effects were observed”. Moreover, in [3], the “IL-10 levels decreased by” value was found to be 12.0 pg/mL. The EC50 in data set [4] (setting [12]) is reported as 5.40 multiples of the MIC; in data set [5] (setting [12]), 1.87 multiples of the MIC; in [6] (setting [12]) it was 0.92 multiples of the MIC; in [7] (setting [15]), 3.53 multiples of the MIC; in data set [8] (setting [15]), 1.10 multiples of the MIC; in data set [9] (95% CI in brackets) it was 24.29 multiples of the MIC. The “Emax (log CFU, 95% CI)” value is listed as −5.89 log CFU in data set [4] (setting [13]); −5.37 log CFU in data set [5] (setting [13]); −5.85 log CFU in [6] (setting [13]); 0.46 log CFU in data set [7] (setting [16]); 0.43 log CFU in data set [8] (setting [16]); −4.85 log CFU in data set [9] (change at 24 h from original inoculum, extrapolated to infinitely high concentration). The values for the Cs in data set [4] (setting [14]), in [5] (setting [14]) and in [6] (setting [14]) were ~5.88 multiples of the MIC, ~1.48 multiples of the MIC and ~1.10 multiples of the MIC, respectively. Further, the “resistant rates for the highest test concentrations compared to the untreated group” value in data set [7] (intracellular, 24 h) stood at 99.68%; in data set [8] (intracellular, 24 h), 93.03%. Also, the accumulation in macrophages entry in data set [11] is on record as “up to 8 fold”.
